From patent US5677419A, “Cyclic vasoactive peptide analogs” (Hoffmann-La Roche Inc., priority 1994, dated 1997) come the findings set out here.

Test [1] has as its system guinea pigs. The test is described as follows: In vivo bronchodilator activity by tracheal instillation against histamine challenge. Particulars: anesthetized male guinea pigs, inhibition of histamine (i.v.)-induced rise in tracheal pressure. Set-up: species or system guinea pig. A digest of the protocol:
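Urethane-anaesthetised male Hartley guinea pigs (400-600 g) received compound in water by intratracheal instillation, then were paralysed, ventilated and challenged with histamine […] i.v. Tracheal pressure change gave % inhibition (≥3 animals/group); ED50 from log dose-response; duration as time until inhibition fell to 40%.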

The subject of test [2] is guinea pig tracheal smooth muscle. The test is described as follows: Tracheal relaxant activity of VIP analogs on isolated guinea pig tracheal rings. The class given is cell-based. Particulars: cumulative concentration response, relaxation as % of maximum response to VIP (10^-6 M=100%), three tissues pooled, linear regression. A digest of the protocol: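 Male guinea pig tracheal rings under 1.5 g resting tension in Krebs at 37° C, 95% O2/5% CO2, isometric tension. Cumulative concentration-response curves; relaxation as % of response to 10^-6 M VIP added at end; three tissues pooled, EC50 by linear regression.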

Where a SMILES comes first, the peptide text is derived from it. Bridges are numbered along the chain shown (N, C = ends). [ ]: non-standard residue; d: D form. Nle = CCCC[C@H](N)C(=O)O

As to `CCCC[C@H](NC(=O)[C@H](CCC(N)=O)NC(=O)[C@H](CCCCN)NC(=O)[C@H](CCCNC(=N)N)NC(=O)[C@H](CC(C)C)NC(=O)[C@H](CCCCN)NC(=O)[C@@H](NC(=O)[C@H](Cc1ccc(O)cc1)NC(=O)[C@H](CC(N)=O)NC(=O)[C@H](C)NC(=O)[C@@H](NC(=O)[C@H](Cc1ccccc1)NC(=O)[C@@H](NC(=O)[C@H](C)NC(=O)[C@H](CC(=O)O)NC(=O)[C@H](CO)NC(=O)[C@H](Cc1c[nH]cn1)NC(C)=O)C(C)C)[C@@H](C)O)[C@@H](C)O)C(=O)N[C@@H](C)C(=O)N[C@@H](C)C(=O)N[C@@H](CCCCN)C(=O)N[C@H]1CCCCNC(=O)C[C@@H](C(=O)N[C@@H](CC(C)C)C(=O)N[C@@H](CCCCN)C(=O)N[C@@H](CCCCN)C(N)=O)NC(=O)[C@H](C)NC(=O)[C@H](CC(C)C)NC(=O)[C@H](Cc2ccc(O)cc2)NC1=O` [SEQ ID NO:59, Ac-[Ala^8,Lys^12,Nle^17,Ala^19,Ala^24,Asp^25,Leu^26,Lys^27,28]-VIP cyclo (Lys^21 →Asp^25)] (Ac-HSDAVFTANYTKLRKQ[Nle]AAKKYLADLKK-NH2; lactam 21-25), the “Bronchodilator activity of VIP analogs in guinea pigs, ED50” value (shortened to “Bronchodilator activity of VIP analogs”) in test [1] came out at 0.17 μg. The EC50 in test [2] amounted to 1.1 nM.
The like results for `CC(=O)N[C@@H](Cc1c[nH]cn1)C(=O)N[C@@H](CO)C(=O)N[C@@H](CC(=O)O)C(=O)N[C@@H](C)C(=O)N[C@H](C(=O)N[C@@H](Cc1ccccc1)C(=O)N[C@H](C(=O)N[C@@H](CCC(=O)O)C(=O)N[C@@H](CC(N)=O)C(=O)N[C@@H](Cc1ccc(O)cc1)C(=O)N[C@H](C(=O)N[C@@H](CCCCN)C(=O)N[C@@H](CC(C)C)C(=O)N[C@@H](CCCNC(=N)N)C(=O)N[C@@H](CCCCN)C(=O)N[C@@H](C)C(=O)N[C@@H](C)C(=O)N[C@@H](C)C(=O)N[C@@H](C)C(=O)N[C@@H](CCCCN)C(=O)N[C@H]1CCCCNC(=O)C[C@@H](C(=O)N[C@@H](CC(C)C)C(=O)N[C@@H](CCCCN)C(=O)N[C@@H](CCCCN)C(N)=O)NC(=O)[C@H](CC(N)=O)NC(=O)[C@H](CC(C)C)NC(=O)[C@H](Cc2ccc(O)cc2)NC1=O)[C@@H](C)O)[C@@H](C)O)C(C)C` [SEQ ID NO:60, Ac-[Glu^8,Lys^12,Ala^16,17,19,Asp^25,Leu^26,Lys^27,28]-VIP cyclo (Lys^21 →Asp^25)] (Ac-HSDAVFTENYTKLRKAAAAKKYLNDLKK-NH2; lactam 21-25) were, in that order, 0.17 μg and 0.26 nM.
With `CCCC[C@H](NC(=O)[C@H](C)NC(=O)[C@H](CCCCN)NC(=O)[C@H](CCCNC(=N)N)NC(=O)[C@H](CC(C)C)NC(=O)[C@H](CCCCN)NC(=O)[C@@H](NC(=O)[C@H](Cc1ccc(O)cc1)NC(=O)[C@H](CC(N)=O)NC(=O)[C@H](C)NC(=O)[C@@H](NC(=O)[C@H](Cc1ccccc1)NC(=O)[C@@H](NC(=O)[C@H](C)NC(=O)[C@H](CC(=O)O)NC(=O)[C@H](CO)NC(=O)[C@H](Cc1c[nH]cn1)NC(C)=O)C(C)C)[C@@H](C)O)[C@@H](C)O)C(=O)N[C@@H](C)C(=O)N[C@@H](C)C(=O)N[C@@H](CCCCN)C(=O)N[C@H]1CCCCNC(=O)C[C@@H](C(=O)N[C@@H](CC(C)C)C(=O)N[C@@H](CCCCN)C(=O)N[C@@H](CCCCN)C(N)=O)NC(=O)[C@H](C)NC(=O)[C@H](CC(C)C)NC(=O)[C@H](Cc2ccc(O)cc2)NC1=O` [SEQ ID NO:61, Ac-[Ala^8,Lys^12,Ala^16,Nle^17,Ala^19,Ala^24,Asp^25,Leu^26,Lys^27,28]-VIP cyclo (Lys^21 →Asp^25)] (Ac-HSDAVFTANYTKLRKA[Nle]AAKKYLADLKK-NH2; lactam 21-25), in test [1], the “Bronchodilator activity of VIP analogs” value is on record as 0.045 μg. It took 2.4 nM to reach a half-maximal effect in test [2] (EC50).
`CC(=O)N[C@@H](Cc1c[nH]cn1)C(=O)N[C@@H](CO)C(=O)N[C@@H](CC(=O)O)C(=O)N[C@@H](C)C(=O)N[C@H](C(=O)N[C@@H](Cc1ccccc1)C(=O)N[C@H](C(=O)N[C@@H](C)C(=O)N[C@@H](CC(N)=O)C(=O)N[C@@H](Cc1ccc(O)cc1)C(=O)N[C@H](C(=O)N[C@@H](CCCCN)C(=O)N[C@@H](CC(C)C)C(=O)N[C@@H](CCCNC(=N)N)C(=O)N[C@@H](CCCCN)C(=O)N[C@@H](C)C(=O)N[C@@H](C)C(=O)N[C@@H](C)C(=O)N[C@@H](C)C(=O)N[C@@H](CCCCN)C(=O)N[C@H]1CCCCNC(=O)C[C@@H](C(=O)N[C@@H](CC(C)C)C(=O)N[C@@H](CCCCN)C(=O)N[C@@H](CCCCN)C(N)=O)NC(=O)[C@H](C)NC(=O)[C@H](CC(C)C)NC(=O)[C@H](Cc2ccc(O)cc2)NC1=O)[C@@H](C)O)[C@@H](C)O)C(C)C` [SEQ ID NO:62, Ac-[Ala^8,Lys^12,Ala^16,17,19,Ala^24,Asp^25,Leu^26,Lys^27,28]-VIP cyclo (Lys^21 →Asp^25)] (Ac-HSDAVFTANYTKLRKAAAAKKYLADLKK-NH2; lactam 21-25): in test [1], the “Bronchodilator activity of VIP analogs” value was 0.24 μg. In test [2], this compound returned a concentration giving a half-maximal response (EC50) of 0.1 nM.
Turning to `CC(=O)N[C@@H](Cc1c[nH]cn1)C(=O)N[C@@H](CO)C(=O)N[C@@H](CC(=O)O)C(=O)N[C@@H](C)C(=O)N[C@H](C(=O)N[C@@H](Cc1ccccc1)C(=O)N[C@H](C(=O)N[C@@H](CCC(=O)O)C(=O)N[C@@H](CC(N)=O)C(=O)N[C@@H](Cc1ccc(O)cc1)C(=O)N[C@H](C(=O)N[C@@H](CCCCN)C(=O)N[C@@H](CC(C)C)C(=O)N[C@@H](CCCNC(=N)N)C(=O)N[C@@H](CCCCN)C(=O)N[C@@H](C)C(=O)N[C@@H](C)C(=O)N[C@@H](C)C(=O)N[C@@H](C)C(=O)N[C@@H](CCCCN)C(=O)N[C@H]1CCCCNC(=O)C[C@@H](C(=O)N[C@@H](CC(C)C)C(=O)N[C@@H](CCCCN)C(=O)N[C@@H](CCCCN)C(N)=O)NC(=O)[C@H](C)NC(=O)[C@H](CC(C)C)NC(=O)[C@H](Cc2ccc(O)cc2)NC1=O)[C@@H](C)O)[C@@H](C)O)C(C)C` [SEQ ID NO:64, Ac-[Glu^8,Lys^12,Ala^16,17,19,Ala^24,Asp^25,Leu^26,Lys^27,28]-VIP cyclo (Lys^21 →Asp^25)] (Ac-HSDAVFTENYTKLRKAAAAKKYLADLKK-NH2; lactam 21-25), the “Bronchodilator activity of VIP analogs” value in test [1] is listed as 0.13 μg. Also, the EC50 in test [2] amounted to 0.22 nM.
For `CCCC[C@H](NC(=O)[C@H](CCC(N)=O)NC(=O)[C@H](CCCCN)NC(=O)[C@H](CCCNC(=N)N)NC(=O)[C@H](CC(C)C)NC(=O)[C@H](CCCCN)NC(=O)[C@@H](NC(=O)[C@H](Cc1ccc(O)cc1)NC(=O)[C@H](CC(N)=O)NC(=O)[C@H](CCC(=O)O)NC(=O)[C@@H](NC(=O)[C@H](Cc1ccccc1)NC(=O)[C@@H](NC(=O)[C@H](C)NC(=O)[C@H](CC(=O)O)NC(=O)[C@H](CO)NC(=O)[C@H](Cc1c[nH]cn1)NC(C)=O)C(C)C)[C@@H](C)O)[C@@H](C)O)C(=O)N[C@@H](C)C(=O)N[C@@H](C)C(=O)N[C@@H](CCCCN)C(=O)N[C@H]1CCCCNC(=O)C[C@@H](C(=O)N[C@H](C(=O)N[C@@H](CC(C)C)C(=O)N[C@H](C(=O)NCC(=O)NCC(=O)N[C@H](C(N)=O)[C@@H](C)O)[C@@H](C)O)C(C)C)NC(=O)[C@H](CC(N)=O)NC(=O)[C@H](CC(C)C)NC(=O)[C@H](Cc2ccc(O)cc2)NC1=O` [SEQ ID NO:65, Ac-[Glu^8,Lys^12,Nle^17,Ala^19,Asp^25,Val^26,Thr^28,Gly^29,30,Thr^31]-VIP cyclo (Lys^21 →Asp^25)] (Ac-HSDAVFTENYTKLRKQ[Nle]AAKKYLNDVLTGGT-NH2; lactam 21-25), the “Bronchodilator activity of VIP analogs” value in test [1] amounted to 0.84 μg. This compound also displayed a concentration for a half-maximal effect (EC50) in test [2] of 0.88 nM.
